Data as given in patent US20120214862A1, “MODULATION OF FACTOR 7 EXPRESSION” (ISIS Pharmaceuticals, Inc., priority 2009, published 2012).
In the oligonucleotide strings, read from the 5' end, every base follows the letter of its sugar. An asterisk marks phosphorothioate; unmarked linkages are phosphodiester. Other units and linkages are bracketed, terminal groups are in braces. A string of capitals states the bases alone. e = 2'-O-(2-methoxyethyl) (MOE); [5mC] = 5-methylcytosine; d = 2'-deoxy (DNA)

Tests used:
[1] = system: human Factor 7 mRNA; assay: Antisense inhibition of human Factor 7 mRNA in HepB3 cells, lipofectin, 50 nM, real-time RT-PCR; format: cell-based; settings: for % Inhibition (human Factor 7 mRNA): 50 nM, ~24 h
In short: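 HepB3 cells were transfected by lipofectin with 50 nM antisense oligonucleotide and harvested after about 24 h. Factor 7 mRNA was measured by real-time RT-PCR (primer probe set RTS 2927 in some runs), normalized to RIBOGREEN total RNA, and reported as percent inhibition versus untreated control.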

[2] = system: human Factor 7 mRNA; assay: Dose-dependent antisense inhibition of human Factor 7 in HepB3 cells, transfection with lipofectin; format: cell-based; settings: HepB3, lipofectin, ~16 h
Description: Cells were plated at a density of 4,000 cells per well and treated with lipofectin reagent with 3.125 nM, 6.25 nM, 12.5 nM, 25 nM, 50 nM, and 100 nM concentrations of antisense oligonucleotide, as indicated in Table 3. After a treatment period of approximately 16 hours, RNA was isolated from the cells and Factor 7 mRNA levels were measured by real-time RT-PCR, as described herein. Human Factor 7 primer probe set RTS 2927 (forward sequence: […], incorporated herein as SEQ ID NO: 164; reverse sequence: […], incorporated herein as SEQ ID NO: 165; probe sequence: TGGGTGGTCTCCGCGGCCX, incorporated herein as SEQ ID NO: 166) was used to measure mRNA levels. Factor 7 mRNA levels were adjusted according to total RNA content as measured by RIBOGREEN®. Results are presented as percent inhibition of Factor 7, relative to untreated control cells.
Cells were plated at a density of 4,000 cells per well and transfected using lipofectin reagent with 6.25 nM, 12.5 nM, 25.0 nM, 50.0 nM, and 100.0 nM concentrations of antisense oligonucleotide, as indicated in Table 7. After a treatment period of approximately 16 hours, RNA was isolated from the cells and Factor 7 mRNA levels were measured by real-time RT-PCR, as described herein. Human Factor 7 primer probe set RTS 2927 was used to measure mRNA levels. Factor 7 mRNA levels were adjusted according to total RNA content as measured by RIBOGREEN®. Results are presented as percent inhibition of Factor 7, relative to untreated control cells.
Cells were plated at a density of 4,000 cells per well and transfected using lipofectin reagent with 3.125 nM, 6.25 nM, 12.5 nM, 25 nM, 50 nM, and 100 nM concentrations of antisense oligonucleotide, as specified in Table 14. After a treatment period of approximately 16 hours, RNA was isolated from the cells and Factor 7 mRNA levels were measured by quantitative real-time PCR. Human Factor 7 primer probe set RTS 2927 was used to measure mRNA levels. Factor 7 mRNA levels were adjusted according to total RNA content, as measured by RIBOGREEN®. Results are presented as percent inhibition of Factor 7, relative to untreated control cells.

[3] = Example 1, HepB3 cells, lipofectin, relative to untreated control cells
[4] = HepB3 cells, lipofectin, 50 nM antisense oligonucleotide, approximately 24 hours, primer probe set RTS 2927, relative to untreated control
[5] = HepB3 cells, gapmers targeted to nucleobases 14707 to 14732 of SEQ ID NO: 1 (Table 11)

Substance | % Inhibition (human Factor 7 mRNA) [1, 3] | percent inhibition of Factor 7 mRNA, 3.125 nM ([2]; Example 2) | percent inhibition of Factor 7 mRNA, 6.25 nM ([2]; Example 2) | percent inhibition of Factor 7 mRNA, 12.5 nM ([2]; Example 2) | percent inhibition of Factor 7 mRNA, 25.0 nM ([2]; Example 2) | percent inhibition of Factor 7 mRNA, 50.0 nM ([2]; Example 2) | percent inhibition of Factor 7 mRNA, 100.0 nM ([2]; Example 2) | % Inhibition of human Factor 7 mRNA levels [1, 4] | % Inhibition of human Factor 7 mRNA levels [1, 5] | % Inhibition (human Factor 7 mRNA) ([1]; Example 6 microwalk, nucleobases 15098 to 15122 of SEQ ID NO: 1, HepB3, lipofectin) | percent inhibition of Factor 7 mRNA, 6.25 nM ([2]; Example 5) | percent inhibition of Factor 7 mRNA, 12.5 nM ([2]; Example 5) | percent inhibition of Factor 7 mRNA, 25.0 nM ([2]; Example 5) | percent inhibition of Factor 7 mRNA, 50.0 nM ([2]; Example 5) | percent inhibition of Factor 7 mRNA, 100.0 nM ([2]; Example 5) | % Inhibition of human Factor 7 mRNA levels ([1]; HepB3 cells, gapmers targeted to nucleobases 13760 to 13789 of SEQ ID NO: 1 (Table 10))
407594 (antisense e[5mC]*e[5mC]*eT*eG*e[5mC]*dA*dG*d[5mC]*d[5mC]*dA*dG*dG*d[5mC]*dA*dG*e[5mC]*e[5mC]*e[5mC]*eT*eG) [compound 407594] | 87% | 10% | 34% | 63% | 77% | 84% | 80% | – | – | – | – | – | – | – | – | –
407606 (antisense e[5mC]*eT*eG*eG*eT*d[5mC]*d[5mC]*dT*dT*dG*d[5mC]*dA*dG*dG*dA*eG*e[5mC]*e[5mC]*e[5mC]*e[5mC]) [compound 407606] | 89% | 20% | 0% | 49% | 55% | 83% | 84% | 57% | – | – | – | – | – | – | – | –
407641 (antisense e[5mC]*e[5mC]*eT*eG*eA*dG*dG*d[5mC]*d[5mC]*dA*dG*d[5mC]*dA*dG*dA*eT*e[5mC]*eA*e[5mC]*eG) [compound 407641] | 94% | 53% | 53% | 71% | 84% | 88% | 89% | 73% | 68% | – | – | – | – | – | – | –
407643 (antisense e[5mC]*eA*e[5mC]*eA*e[5mC]*dA*dT*dG*dG*dA*dG*dT*d[5mC]*dA*dG*e[5mC]*eA*eT*e[5mC]*eG) [compound 407643] | 84% | 16% | 59% | 68% | 76% | 92% | 95% | 80% | – | 69% | 36% | 49% | 70% | 83% | 93% | –
407900 (antisense e[5mC]*e[5mC]*e[5mC]*e[5mC]*eA*d[5mC]*dA*dA*dT*dT*d[5mC]*dG*dG*d[5mC]*d[5mC]*eT*eT*eG*eG*eG) [compound 407900] | 91% | 52% | 58% | 80% | 87% | 94% | 91% | 78% | – | – | 18% | 36% | 61% | 82% | 91% | –
407910 (antisense eA*eG*eT*e[5mC]*e[5mC]*dT*dT*dG*d[5mC]*dT*dG*d[5mC]*d[5mC]*dA*dT*e[5mC]*e[5mC]*eG*eA*eG) [compound 407910] | 86% | 31% | 44% | 69% | 68% | 82% | 89% | 72% | – | – | – | – | – | – | – | –
407936 (antisense eG*eG*e[5mC]*eA*eT*dT*d[5mC]*dG*d[5mC]*d[5mC]*dA*d[5mC]*d[5mC]*dA*dT*eG*e[5mC]*eA*eT*eG) [compound 407936] | 91% | 45% | 77% | 79% | 86% | 91% | 90% | – | – | – | – | – | – | – | – | –
416438 (antisense e[5mC]*eA*eG*eG*eA*dG*d[5mC]*d[5mC]*d[5mC]*d[5mC]*d[5mC]*dA*dT*dT*d[5mC]*eT*eG*eG*e[5mC]*eA) [compound 416438] | – | – | – | – | – | – | – | 63% | – | – | 11% | 33% | 56% | 75% | 82% | –
416446 (antisense eG*eG*eT*e[5mC]*eA*d[5mC]*dT*dG*d[5mC]*dA*dG*dT*dA*d[5mC]*dT*eG*e[5mC]*eT*e[5mC]*eA) [compound 416446] | – | – | – | – | – | – | – | 64% | – | – | 25% | 24% | 50% | 69% | 64% | –
416449 (antisense eT*eA*eG*eG*eT*dA*dT*dT*dT*dT*dT*d[5mC]*d[5mC]*dA*d[5mC]*eA*eT*eG*eG*eA) [compound 416449] | – | – | – | – | – | – | – | 68% | – | – | 19% | 33% | 45% | 65% | 85% | –
416455 (antisense e[5mC]*eG*e[5mC]*e[5mC]*eG*dG*d[5mC]*dT*d[5mC]*dT*dG*d[5mC]*dT*d[5mC]*dA*eT*e[5mC]*e[5mC]*e[5mC]*e[5mC]) [compound 416455] | – | – | – | – | – | – | – | 72% | – | – | 28% | 44% | 64% | 78% | 87% | 51%
416472 (antisense e[5mC]*eA*eG*e[5mC]*e[5mC]*dT*dT*dG*dG*d[5mC]*dT*dT*dT*d[5mC]*dT*e[5mC]*eT*e[5mC]*e[5mC]*eA) [compound 416472] | – | – | – | – | – | – | – | 76% | – | – | 16% | 44% | 64% | 80% | 88% | –
416477 (antisense e[5mC]*eA*eG*e[5mC]*e[5mC]*dT*dG*dA*dG*dG*d[5mC]*d[5mC]*dA*dG*d[5mC]*eA*eG*eA*eT*e[5mC]) [compound 416477] | – | – | – | – | – | – | – | 74% | 71% | – | 21% | 46% | 64% | 78% | 87% | –
416507 (antisense eG*eG*eT*eT*eA*d[5mC]*dT*dG*dA*dG*d[5mC]*dG*d[5mC]*dG*dG*eA*eA*eG*eA*eA) [compound 416507] | – | – | – | – | – | – | – | 73% | – | – | 30% | 53% | 70% | 77% | 72% | –
